From patent US20230158057A1, “COMPOSITIONS AND METHODS FOR THE TREATMENT OF PAIN” (Duke University, priority 2020, published 2023)
“Also recorded” adds a separate entry of the source.

What was measured:
tumor-bearing femora = experiment: In vivo X-ray radiography of bone destruction, LLC model; set-up: species or system mouse; settings: for bone destruction score: LLC model, twice i.p.
Text: In vivo X-ray radiography. Osteolytic bone destruction was continuously evaluated by radiography using the MultiFocus by Faxitron system (Faxitron Bioptics LLC, Tucson, Ariz.). Radiographs of tumor-bearing femora were rated for bone destruction on a 0-5 score scale based on previous study: 0 for normal bone at baseline without tumor inoculation; 1 for one to three radiolucent lesions indicative of bone destruction compared to baseline; 2 for increased number of lesions (three to six lesions) and loss of medullary bone; 3 for loss of medullary bone and erosion of cortical bone; 4 for full-thickness unicortical bone loss; 5 for full-thickness bicortical bone loss and displaced skeletal fracture. All radiographic image quantifications were completed by an experimenter who was blinded to the experimental conditions.

[1] = tested on: mice with intrafemoral Lewis lung carcinoma (LLC); experiment: Open field test in LLC bone cancer model; format: in vivo, mouse; settings: d14 after tumor inoculation
Description: Behavior tests. All the behavioral tests were conducted in a blinded manner and performed during between the hours of 9:00-16:00. Animals were habituated in a light and humidity controlled testing environment for at least 2 days prior to baseline testing. For Von Frey testing, mice were confined to individual 5×5 cm boxes placed on an elevated wire grid. A blinded experimenter stimulated their hindpaws using a series of von Frey filaments with logarithmically increasing stiffness (0.02-2.56 g, Stoelting). Each filament was applied perpendicularly to the central plantar surface. The 50% paw withdrawal threshold was determined using Dixon's up-down method. In addition, we also measured paw withdrawal frequency to repeated stimulation (10 times, with ˜1-2 minutes between each stimulation) using a subthreshold 0.16 g von Frey filament, which is a more sensitive method to detect mechanical allodynia. […] To measure locomotor function, we performed open field testing in which mice were placed in the center of a 45×45 cm chamber and locomotor activity was recorded by an overhead webcam connected to a laptop computer, and animals' movements were automatically tracked for 30 minutes using ANY-Maze. The total distance traveled and mean speed during the 30-minute period were analyzed.

IFN-β = IFN-β ELISA on BMDM culture medium; format: cell-based, mouse; settings: 24 h after incubation; IFN-β induction much greater
Description: (§1) ELISA. Mouse high-sensitivity IFN-α ELISA kit (42115-1) and IFN-β ELISA kit (42410-1) were purchased from PBL Assay Science. Mouse CTX-I ELISA kit (AC-06F1) and mouse PINP ELISA kit (AC-33F1) were purchased from Immunodiagnostic Systems. ELISA was performed using culture medium, serum, and bone marrow lysates. Serum was obtained from whole blood that was collected from a submandibular vein via facial vein puncture, coagulated for 30 minutes at room temperature, followed by centrifugation (2,000 ×g for 10 min, 4° C.) and collection of the supernatant (serum). Bone marrow was homogenized in a lysis buffer containing protease inhibitors at 4° C. for 30 minutes. ELISA was conducted in accordance with the manufacturer's instructions. A standard curve was performed for each experiment.
(§2) In vitro induction of osteoclastogenesis and TRAP staining. For in vitro drug treatment, the RAW 264.7 cells were incubated with 35 ng/ml RANKL for six days. Isolated bone marrow cells were cultured overnight in α-MEM media containing 10% fetal bovine serum and 1% antibiotic-antimycotic solution. The suspended cells were collected and incubated with 20 ng/ml MCSF for 3 days to obtain bone marrow-derived macrophage (BMDM). The attached cells were further activated by 35 ng/ml RANKL and 20 ng/ml MCSF. Drug treatment was performed in tandem with RANKL. Culture medium and co-cultured reagents were changed every 3 days. […]

IFN-α = IFN-α ELISA on BMDM culture medium; format: cell-based, mouse; settings: 24 h after incubation
Description: as §1, §2

[2] = tested on: mice with intrafemoral Lewis lung carcinoma (LLC); experiment: LLC bone cancer pain model, systemic (i.p.) treatment, behavior tests and body weight; format: in vivo, mouse; settings: for spontaneous and ongoing pain (flinching, guarding): d14; for body weight / cancer-induced cold allodynia / cancer-induced mechanical allodynia (paw withdrawal threshold): twice i.p.; for cancer-induced mechanical allodynia (paw withdrawal threshold): DMXAA, ADU-S100 20 mg/kg, ZA 100 μg/kg; for acute effect on bone cancer pain: d11, 4 h after single i.p. injection
Description: Bone cancer pain model. The murine cell lines LLC1, LL/2-Luc2 or E0771 were lightly digested using 0.05% trypsin, followed by centrifugation to remove poorly digested cell clusters. Cells were then resuspended in PBS at a concentration of 1×10^8 cells/ml. The inoculation was performed as previously described (Wang, K. et al. “PD-1 blockade inhibits osteoclast formation and murine bone cancer pain.” The Journal of clinical investigation, (2020); Wang, Z. et al. “Anti-PD-1 treatment impairs opioid antinociception in rodents and nonhuman primates.” Sci Transl Med 12 (2020)). Briefly, mice were anesthetized with 4% isoflurane and the left leg was shaved and the skin disinfected with 10% povidone-iodine and 75% ethanol. A superficial incision (0.5-1 cm) was made near the knee joint, exposing the patellar ligament. […] The syringe contents were slowly injected into the femoral cavity over a 2-minute interval. To prevent further leakage of tumor cells outside of the bone cavity, the outer injection site was sealed with silicone adhesive (Kwik-Sil, World Precision Instruments, US). Animals with surgery related movement dysfunction or with outside bone tumor injection were excluded from the study. Drug treatment. […] All other reagents were dissolved in sterile saline or PBS. For experiments utilizing rabbit anti-IFN-α or -β neutralizing antibodies, a polyclonal rabbit IgG antibody served as the control. […] Behavior tests. All the behavioral tests were conducted in a blinded manner and performed during between the hours of 9:00-16:00. Animals were habituated in a light and humidity controlled testing environment for at least 2 days prior to baseline testing. For Von Frey testing, mice were confined to individual 5×5 cm boxes placed on an elevated wire grid. A blinded experimenter stimulated their hindpaws using a series of von Frey filaments with logarithmically increasing stiffness (0.02-2.56 g, Stoelting). Each filament was applied perpendicularly to the central plantar surface. The 50% paw withdrawal threshold was determined using Dixon's up-down method.

naïve mice = experiment: Naloxone reversal of antinociception; format: in vivo, mouse; settings: naloxone 10 mg/kg i.p.; morphine 2 nmol i.t., DMXAA or ADU-S100 35 nmol i.t.
Description: Following naloxone delivery, mice were tested within 15 minutes. For the experiments testing whether mice developed tolerance to the effects of STING agonists, vehicle or DMXAA (35 nmol) were administered via i.t. injection. Naïve mice received five single injections at D0, D3, D6, D9, and D12, with testing each day 4 h after injection. SNI mice received injections on two consecutive days beginning on D7 (D7 and D8) and every 48 h afterwards following the conclusion of sensory testing (D10, D12, D14, D16, and D18). Spinal cords (L4-L5) were collected for analysis of glial cell activation at D21 following SNI.

SMILES | bone destruction score (tumor-bearing femora) | open field distance and speed of movement [1] | IFN-β levels in the culture medium (IFN-β) | IFN-α levels in the culture medium (IFN-α) | spontaneous and ongoing pain (flinching, guarding) ([2]; LLC model) | body weight ([2]; LLC model) | cancer-induced cold allodynia ([2]; LLC model) | cancer-induced mechanical allodynia (paw withdrawal threshold) ([2]; LLC model) | acute effect on bone cancer pain [2] | effect of naloxone on the antinociception of the substance (naïve mice) | further results
Nc1ncnc2c1ncn2[C@@H]1O[C@@H]2COP(=O)([S-])O[C@@H]3[C@H](O)[C@@H](COP([O-])(=S)O[C@H]2[C@H]1O)O[C@H]3n1cnc2c(N)ncnc21.[Na+].[Na+] (stereo partly drawn) [ADU-S100, (2′-5′)-[P(R)]-5′-O-[(R)-hydroxymercaptophosphinyl]-P-thioadenylyl-adenosine cyclic dinucleotide] | reduced the bone destruction score at d11 and d15 | increased overall distance of movement and increased speed of movement | drastic increase in IFN-α and IFN-β levels | drastic increase in IFN-α and IFN-β levels | exhibited reduced spontaneous and ongoing pain | no effect on overall body weight | reduced cold allodynia on both d10 and d14 | could significantly attenuate mechanical allodynia in both measures on d10 and d14 | substantial reduction in mechanical allodynia, cold allodynia, and spontaneous pain | had no effect | withdrawal frequency to low-threshold stimulation (0.16 g Von Frey filament) ([2]; LLC model, i.p. at d3 and d10): could significantly attenuate mechanical allodynia in both measures on d10 and d14
Cc1ccc2c(=O)c3cccc(CC(=O)O)c3oc2c1C [DMXAA, 2-(5,6-dimethyl-9-oxo-9H-xanthen-4-yl)acetic acid] | decreased the bone destruction score on d8, d11 and d15 | greater overall distance of movement and increased speed of movement | drastic increase in IFN-α and IFN-β levels | drastic increase in IFN-α and IFN-β levels | attenuated measures of spontaneous and ongoing pain | no differences in body weight; also recorded: did not see body weight changes | significantly reduced | significantly reduced mechanical allodynia on d7, d10 and d14 | substantial reduction in mechanical allodynia, cold allodynia, and spontaneous pain | had no effect | bone destruction in Batf3^−/− mice (tumor-bearing femora; 20 mg/kg i.p. d3 and d7): reduced bone destruction on d8 and d11 but not d15 in Batf3^−/− mice; bone destruction score, WT and Rag1^−/− (tumor-bearing femora; 20 mg/kg i.p. d3 and d7): improvement in the bone destruction score in both WT and Rag1^−/− mice at d11, but not at d15; bone destruction score, WT vs STING^gt/gt (tumor-bearing femora; 20 mg/kg i.p. d3 and d7): reduction in the bone destruction score in DMXAA-treated WT mice at d11 and d15 after tumor inoculation, and this effect was abolished in STING^gt/gt mice; bone destruction score, WT vs Ifnar1^−/− (tumor-bearing femora; d11 and d15): significantly reduced the bone destruction score without changing overall body weight in WT mice, but this effect was abolished in Ifnar1^−/− mice; mechanical and cold allodynia, WT and Rag1^−/− ([2]; 20 mg/kg i.p. d3 and d7): reduced by DMXAA treatment in both WT and Rag1^−/− mice at early stages (7 d and 10 d), but not at later stages; mechanical and cold allodynia, WT vs Ifnar1^−/− ([2]; 20 mg/kg i.p. d3 and d7): effectively attenuated cancer-induced mechanical allodynia and cold allodynia in WT mice but not Ifnar1^−/− mice; mechanical and cold allodynia, WT vs STING^gt/gt ([2]; 20 mg/kg i.p. d3 and d7): significantly attenuated mechanical and cold allodynia in WT mice, and this effect was abolished in STING^gt/gt mice; mechanical or cold allodynia in Batf3^−/− mice ([2]; 20 mg/kg i.p. d3 and d7): could attenuate mechanical allodynia or cold allodynia in Batf3^−/− mice on d7 and d10 but not day 14; acute effect on mechanical and cold allodynia, WT vs STING^gt/gt or Ifnar1^−/− ([2]; 20 mg/kg i.p., 4 h): could reduce mechanical allodynia and cold allodynia in WT mice but not in STING^gt/gt mice or Ifnar1^−/− mice; acute antinociceptive effects, WT vs Ifnar1-cKO ([2]; single 20 mg/kg i.p.): present in WT, but not Ifnar1-cKO littermates
